Laboratory results taken from patent US4115541A (priority 1975, dated 1978).
Like-named read-outs stand apart in the source and are kept apart here.

Columns and labels:
[1] = rabbits, 2 Hrs.
[2] = Distribution of 99mTc-Sn-AEDP and 85Sr in rabbits, carrier effect of AEDP (Example 4); format: in vivo, rabbit; details: 2 Hrs.
Protocol: Adult New Zealand albino rabbits having an average weight of 3.8 kg were utilized. Strontium-85 was employed as a standard for comparison. […] Each dosage is contained in a volume of 1 ml.
The animals were sacrificed serially from 1 to 24 hours after injection and the activities in major organs were determined by counting multiple samples from each organ in a scintillation well counter (the technetium-99m counts were corrected for the Compton contributions from the strontium-85 activity in the technetium-99m energy window). Multiple samples were counted from the tibia, femur, spine and pelvic bones; the total activity in the skeleton was estimated by assuming the whole skeleton consisted of equal proportions by weight of tibia, spine, femur and pelvis and that the skeletal mass was 10% of the body weight. The red marrow was sampled from the femur and the total marrow was assumed to be 2.2% of the total body weight. Similarly, blood volume was assumed to be 7% and the skeletal muscle 43% of the body weight. The whole liver and both kidneys were weighed and multiple samples from each were counted to measure the total activity in each organ.
In another series of experiments carried out as described in Example 2, the distribution of technetium 99m from its 99m-technetium-tin-methylene diphosphonate complex was determined in albino rabbits, again in comparison with strontium-85.
The distribution of technetium 99m from its 99m technetium-tin-1-amino-ethane-1,1-diphosphonate complex was determined as in Example 3 and compared with the distribution of strontium-85.

[3] = rabbits, 2 Hrs.; remark: listed apart in the source
[4] = rabbits i.v., ~1 mg/kg EHDP
[5] = physical; cited from earlier work

## [85Sr+2].[Cl-].[Cl-] [^85 Sr, 85Sr chloride, reference compound]
[1]; MDP 0.01 mg/kg
  Ave Bone, % Dose/1% body weight: 11.85 % Dose/1% body weight
  Blood, % dose/1% body weight: 0.47 % Dose/1% body weight
  Femur, % dose/1% body weight: 13.93 % Dose/1% body weight
  Kidneys, % Dose in Whole Organ: 0.34 % Dose
  Kidneys, % dose/1% body weight: 0.54 % Dose/1% body weight
  Liver, % Dose in Whole Organ: 0.65 % Dose
  Liver, % dose/1% body weight: 0.16 % Dose/1% body weight
  Marrow, % Dose in Whole Organ: 0.53 % Dose
  Marrow, % dose/1% body weight: 0.24 % Dose/1% body weight
  Muscle, % dose/1% body weight: 0.13 % Dose/1% body weight
  Pelvis, % dose/1% body weight: 13.55 % Dose/1% body weight
  Spine, % dose/1% body weight: 12.78 % Dose/1% body weight
  Tibia, % dose/1% body weight: 7.14 % Dose/1% body weight
[1]; MDP 0.05 mg/kg
  Ave Bone, % Dose/1% body weight: 7.29 % Dose/1% body weight
  Blood, % dose/1% body weight: 0.52 % Dose/1% body weight
  Femur, % dose/1% body weight: 9.10 % Dose/1% body weight
  Kidneys, % Dose in Whole Organ: 0.46 % Dose
  Kidneys, % dose/1% body weight: 0.9 % Dose/1% body weight
  Liver, % Dose in Whole Organ: 0.71 % Dose
  Liver, % dose/1% body weight: 0.22 % Dose/1% body weight
  Marrow, % Dose in Whole Organ: 0.53 % Dose
  Marrow, % dose/1% body weight: 0.24 % Dose/1% body weight
  Muscle, % dose/1% body weight: 0.14 % Dose/1% body weight
  Pelvis, % dose/1% body weight: 8.33 % Dose/1% body weight
  Spine, % dose/1% body weight: 6.75 % Dose/1% body weight
  Tibia, % dose/1% body weight: 4.94 % Dose/1% body weight
[1]; MDP 0.1 mg/kg
  Ave Bone, % Dose/1% body weight: 9.17 % Dose/1% body weight
  Blood, % dose/1% body weight: 0.56 % Dose/1% body weight
  Femur, % dose/1% body weight: 10.0 % Dose/1% body weight
  Kidneys, % Dose in Whole Organ: 0.66 % Dose
  Kidneys, % dose/1% body weight: 1.00 % Dose/1% body weight
  Liver, % dose/1% body weight: 0.30 % Dose/1% body weight
  Marrow, % Dose in Whole Organ: 0.57 % Dose
  Marrow, % dose/1% body weight: 0.26 % Dose/1% body weight
  Muscle, % dose/1% body weight: 0.22 % Dose/1% body weight
  One femur, % dose in whole organ: 2.80 % Dose
  Pelvis, % dose/1% body weight: 12.2 % Dose/1% body weight
  Spine, % dose/1% body weight: 8.45 % Dose/1% body weight
  Tibia, % dose/1% body weight: 6.05 % Dose/1% body weight
[1]; MDP 0.5 mg/kg
  Ave Bone, % Dose/1% body weight: 8.77 % Dose/1% body weight
  Blood, % dose/1% body weight: 0.45 % Dose/1% body weight
  Femur, % dose/1% body weight: 11.32 % Dose/1% body weight
  Kidneys, % Dose in Whole Organ: 0.45 % Dose
  Kidneys, % dose/1% body weight: 0.69 % Dose/1% body weight
  Liver, % Dose in Whole Organ: 0.69 % Dose
  Liver, % dose/1% body weight: 0.23 % Dose/1% body weight
  Marrow, % Dose in Whole Organ: 0.67 % Dose
  Marrow, % dose/1% body weight: 0.30 % Dose/1% body weight
  Muscle, % dose/1% body weight: 0.13 % Dose/1% body weight
  Pelvis, % dose/1% body weight: 8.68 % Dose/1% body weight
  Spine, % dose/1% body weight: 8.92 % Dose/1% body weight
  Tibia, % dose/1% body weight: 6.16 % Dose/1% body weight
[2]; AEDP 0.05 mg/kg
  Blood, % Dose in Whole Organ: 2.50 % Dose
[2]; AEDP 0.5 mg/kg
  Liver, % Dose in Whole Organ: 0.720 % Dose
[3]; EHDP 0.01 mg/kg
  Kidneys, % Dose in Whole Organ: 0.43 % Dose
  Liver, % Dose in Whole Organ: 0.74 % Dose
  Marrow, % Dose in Whole Organ: 0.42 % Dose
  One Tibia, % Dose in Whole Organ: 2.60 % Dose
[3]; EHDP 0.05 mg/kg
  Kidneys, % Dose in Whole Organ: 0.46 % Dose
  Liver, % Dose in Whole Organ: 0.77 % Dose
  Marrow, % Dose in Whole Organ: 0.61 % Dose
[3]; EHDP 0.1 mg/kg
  Blood, % Dose in Whole Organ: 3.10 % Dose
  Kidneys, % Dose in Whole Organ: 0.30 % Dose
  Liver, % Dose in Whole Organ: 0.64 % Dose
  Marrow, % Dose in Whole Organ: 0.43 % Dose
  Muscle, % Dose in Whole Organ: 5.0 % Dose
[3]; EHDP 0.5 mg/kg
  Kidneys, % Dose in Whole Organ: 0.48 % Dose
  Liver, % Dose in Whole Organ: 0.76 % Dose
  Marrow, % Dose in Whole Organ: 0.34 % Dose
  Urine, % Dose: 19.67 % Dose
[4]; 1 Hr.
  Blood, % dose/1% body weight: 1.70 % dose/1% body weight
  Bone(Avg), % dose in whole organ: 56.0 % dose
  Bone(Avg), % dose/1% body weight: 5.60 % dose/1% body weight
  Femur, % dose/1% body weight: 4.90 % dose/1% body weight
  Kidneys, % Dose in Whole Organ: 0.80 % dose
  Kidneys, % dose/1% body weight: 1.75 % dose/1% body weight
  Liver, % dose/1% body weight: 0.59 % dose/1% body weight
  Marrow, % Dose in Whole Organ: 0.91 % dose
  Marrow, % dose/1% body weight: 0.41 % dose/1% body weight
  Muscle, % dose/1% body weight: 0.31 % dose/1% body weight
  Pelvis, % dose/1% body weight: 7.07 % dose/1% body weight
  Spine, % dose/1% body weight: 7.03 % dose/1% body weight
  Tibia, % dose/1% body weight: 3.62 % dose/1% body weight
[4]; 2 Hrs
  Blood, % dose/1% body weight: 1.01 % dose/1% body weight
  Bone(Avg), % dose/1% body weight: 6.44 % dose/1% body weight
  Femur, % dose/1% body weight: 5.74 % dose/1% body weight
  Kidneys, % Dose in Whole Organ: 0.64 % dose
  Kidneys, % dose/1% body weight: 1.40 % dose/1% body weight
  Liver, % dose/1% body weight: 0.43 % dose/1% body weight
  Marrow, % Dose in Whole Organ: 0.76 % dose
  Marrow, % dose/1% body weight: 0.34 % dose/1% body weight
  Muscle, % Dose in Whole Organ: 8.8 % dose
  Muscle, % dose/1% body weight: 0.21 % dose/1% body weight
  Pelvis, % dose/1% body weight: 7.70 % dose/1% body weight
  Spine, % dose/1% body weight: 7.59 % dose/1% body weight
  Tibia, % dose/1% body weight: 4.73 % dose/1% body weight
  Urine, % Dose: 18.0 % dose
[4]; 4 Hrs
  Blood, % dose/1% body weight: 0.55 % dose/1% body weight
  Bone(Avg), % dose/1% body weight: 6.81 % dose/1% body weight
  Femur, % dose/1% body weight: 6.17 % dose/1% body weight
  Kidneys, % Dose in Whole Organ: 0.34 % dose
  Kidneys, % dose/1% body weight: 0.71 % dose/1% body weight
  Liver, % dose/1% body weight: 0.26 % dose/1% body weight
  Marrow, % Dose in Whole Organ: 0.50 % dose
  Marrow, % dose/1% body weight: 0.23 % dose/1% body weight
  Muscle, % dose/1% body weight: 0.15 % dose/1% body weight
  Pelvis, % dose/1% body weight: 8.02 % dose/1% body weight
  Spine, % dose/1% body weight: 7.82 % dose/1% body weight
  Tibia, % dose/1% body weight: 5.13 % dose/1% body weight
[4]; 24 Hrs
  Blood, % Dose in Whole Organ: 0.29 % dose
  Blood, % dose/1% body weight: 0.04 % dose/1% body weight
  Bone(Avg), % dose/1% body weight: 5.21 % dose/1% body weight
  Femur, % dose/1% body weight: 4.83 % dose/1% body weight
  Kidneys, % Dose in Whole Organ: 0.03 % dose
  Kidneys, % dose/1% body weight: 0.06 % dose/1% body weight
  Liver, % dose/1% body weight: 0.02 % dose/1% body weight
  Marrow, % Dose in Whole Organ: 0.10 % dose
  Marrow, % dose/1% body weight: 0.05 % dose/1% body weight
  Muscle, % Dose in Whole Organ: 1.00 % dose
  Pelvis, % dose/1% body weight: 5.26 % dose/1% body weight
  Spine, % dose/1% body weight: 6.47 % dose/1% body weight
  Tibia, % dose/1% body weight: 4.27 % dose/1% body weight
[5]
  half-life (radionuclide): 65 days
